According to ChEMBL document CHEMBL3739404, “Arylsulfonamide derivatives of (aryloxy)ethylpiperidines as selective 5-HT7receptor antagonists and their psychotropic properties” (Medchemcomm, 2015):

Columns and labels:
Format in all cases: cell-based
[1] = target: 5-hydroxytryptamine receptor 7 (Homo sapiens, UniProt P34969); experiment: Displacement of [3H]-5-carboxyamidotryptamine from human serotonin 5-HT7B receptor expressed in HEK293 cells after 1 hr by microplate reader based assay
[2] = target: T1, 5-hydroxytryptamine receptor 1A (Homo sapiens, UniProt P08908); experiment: Displacement of [3H]-8-OH-DPAT from human serotonin 5-HT1A receptor expressed in HEK293 cells after 1 hr by microplate reader based assay
T1 sequence (P08908 whole entry): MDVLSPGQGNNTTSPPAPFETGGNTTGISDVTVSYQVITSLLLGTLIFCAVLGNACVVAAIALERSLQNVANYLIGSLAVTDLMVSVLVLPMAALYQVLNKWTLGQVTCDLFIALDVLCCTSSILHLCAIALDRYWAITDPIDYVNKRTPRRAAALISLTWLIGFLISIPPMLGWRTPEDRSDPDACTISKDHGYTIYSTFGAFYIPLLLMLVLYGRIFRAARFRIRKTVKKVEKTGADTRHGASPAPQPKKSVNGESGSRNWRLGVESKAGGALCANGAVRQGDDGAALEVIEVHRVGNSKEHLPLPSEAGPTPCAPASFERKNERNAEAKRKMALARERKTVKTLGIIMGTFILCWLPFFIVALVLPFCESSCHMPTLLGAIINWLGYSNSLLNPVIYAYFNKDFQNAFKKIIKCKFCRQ

[3] = system: HEK293; experiment: Selectivity ratio of Ki for human 5-HT1A receptor to Ki for human 5-HT7B receptor expressed in HEK293 cells

5-hydroxytryptamine receptor 7, sequence (P34969 whole entry): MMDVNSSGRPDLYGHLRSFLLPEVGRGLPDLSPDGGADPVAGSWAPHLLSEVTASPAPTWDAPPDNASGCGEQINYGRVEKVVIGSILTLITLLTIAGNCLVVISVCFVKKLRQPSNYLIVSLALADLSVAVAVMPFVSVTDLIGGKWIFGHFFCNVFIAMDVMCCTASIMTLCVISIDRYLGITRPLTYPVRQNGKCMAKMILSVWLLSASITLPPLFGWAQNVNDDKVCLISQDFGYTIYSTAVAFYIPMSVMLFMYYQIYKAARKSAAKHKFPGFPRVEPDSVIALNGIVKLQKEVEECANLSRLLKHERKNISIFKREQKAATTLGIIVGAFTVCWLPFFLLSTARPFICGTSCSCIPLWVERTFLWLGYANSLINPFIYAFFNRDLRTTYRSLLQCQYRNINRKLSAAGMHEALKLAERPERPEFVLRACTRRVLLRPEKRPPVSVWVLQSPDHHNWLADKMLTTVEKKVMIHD

Row | Structure (SMILES) | Ki [1] [nM] | Ki [2] [nM] | Ratio Ki [3]
1 | O=S(=O)(NC1CCN(CCOc2ccccc2-c2ccccc2)CC1)c1ccccc1 | 49 | 279 | 6
2 | O=S(=O)(NC1CCN(CCOc2ccccc2-c2ccccc2)CC1)c1ccc(F)cc1 | 7 | 159 | 23
3 | CC(C)CS(=O)(=O)NC1CCN(CCOc2ccccc2-c2ccccc2)CC1 | 44 | 74 | 2
4 | CC(C)c1ccccc1OCCN1CCC(NS(=O)(=O)c2cncc3ccccc23)CC1 | 21 | 103 | 5
5 | O=S(=O)(NC1CCN(CCOc2ccccc2-c2ccccc2)CC1)c1cccc(F)c1 | 36 | 368 | 10
6 | CC(C)c1ccccc1OCCN1CCC(NS(=O)(=O)c2ccc(Cl)s2)CC1 | 24 | 455 | 19
7 | Cn1cc(S(=O)(=O)NC2CCN(CCOc3ccccc3-c3ccccc3)CC2)cn1 | 19 | 321 | 17
8 | CC(C)c1ccccc1OCCN1CCC(NS(=O)(=O)c2ccccc2)CC1 | 42 | 249 | 6
9 | O=S(=O)(NC1CCN(CCOc2ccccc2-c2ccccc2)CC1)c1ccc(Cl)s1 |  | 190 | 16
10 | O=S(=O)(NC1CCN(CCOc2ccccc2-c2ccccc2)CC1)c1cccc2ncccc12 | 8 | 102 | 13
11 | CC(C)c1ccccc1OCCN1CCC(NS(=O)(=O)c2ccc(F)c(F)c2)CC1 | 28 | 373 | 14
12 | O=S(=O)(NC1CCN(CCOc2ccccc2-c2ccccc2)CC1)c1cc(F)ccc1F | 7 | 183 | 26
13 | CC(C)CS(=O)(=O)NC1CCN(CCOc2ccccc2C(C)C)CC1 | 200 | 278 | 1
14 | O=S(=O)(NC1CCN(CCOc2ccccc2-c2ccccc2)CC1)c1cncc2ccccc12 | 9 | 74 | 8
15 | CC(C)c1ccccc1OCCN1CCC(NS(=O)(=O)c2cccc(Cl)c2)CC1 | 8 | 178 | 22
